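Growth conditions: 96-well plates. Treatment: test compound, 48 hours, 5 concentrations. Analysis: linear interpolation between bracketing concentrations; unreached endpoints set to highest concentration. Abbreviation: GI50, concentration required for 50% inhibition of growth.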 The source made the active and inactive calls. No stated cut-off is given here; in the data, active = GI50 up to about 1.1 µM and inactive = higher.
Columns and labels:
Assay in all cases: NCI-60 cell line screen, 48 h
[1] = tested on: CCRF-CEM
[2] = tested on: EKVX
[3] = tested on: HCC 2998
[4] = tested on: HL-60
[5] = tested on: HOP-62
[6] = tested on: HOP-92
[7] = tested on: LOX IMVI
[8] = tested on: NCI-H226
[9] = tested on: NCI-H522
[10] = tested on: OVCAR-8
[11] = tested on: RXF 393
[12] = tested on: SF-295
[13] = tested on: SNB-19
[14] = tested on: TK-10
[15] = tested on: UACC-257
[16] = tested on: Hs-578T
[17] = tested on: MCF7
[18] = tested on: MDA-N
[19] = tested on: NCI/ADR-RES

Measured: GI50

COC(=O)/C(=C/c1ccc(OC)cc1)C(C(=O)O)=C1CCCC1
inactive: [1] > 100 µM | [2] > 100 µM | [3] > 100 µM | [4] > 100 µM | [5] > 100 µM | [6] > 100 µM | [7] > 100 µM | [8] > 100 µM | [9] > 100 µM | [10] > 100 µM | [11] > 100 µM | [12] > 100 µM | [13] > 100 µM | [14] > 100 µM | [15] > 100 µM

CC(C)(C)OC(=O)N1CCc2[nH][nH]c(=O)c2C1
inactive: [1] > 100 µM | [2] > 100 µM | [4] > 100 µM | [5] > 100 µM | [6] > 100 µM | [16] > 100 µM | [17] > 100 µM | [18] > 100 µM | [8] > 100 µM | [9] > 100 µM | [19] > 100 µM | [10] > 100 µM | [11] > 100 µM | [12] > 100 µM | [13] > 100 µM | [14] > 100 µM | [15] > 100 µM

CC1(C)N=C(N)N=C(N)N1c1cccc(OCCOc2ccc([N+](=O)[O-])cc2)c1
inactive: [1] 7.76 µM | [2] > 100 µM | [4] 66.8 µM | [5] > 100 µM | [6] > 100 µM | [16] > 100 µM | [7] 8.97 µM | [17] 16 µM | [18] 5.26 µM | [9] 3.79 µM | [10] 74.6 µM | [11] 21.8 µM | [12] > 100 µM | [13] 37.8 µM | [14] > 100 µM | [15] 57.7 µM

CCOC(=O)c1nc2c(Cl)c3ncccc3cc2[nH]c1=O
inactive: [1] 17.5 µM | [2] 9.08 µM | [3] 19.6 µM | [4] 14.2 µM | [5] 25.6 µM | [6] 40.6 µM | [16] 31.7 µM | [17] 30.3 µM | [8] 6.71 µM | [9] 34.4 µM | [19] 30.1 µM | [10] 29.9 µM | [11] 55 µM | [12] 22.8 µM | [13] 48.1 µM | [14] > 100 µM | [15] 46.7 µM

CCOC(=O)c1oc2ccc(OC)c3c2c1CCC3
inactive: [1] 46.7 µM | [2] > 100 µM | [3] > 100 µM | [4] > 100 µM | [5] > 100 µM | [6] 41.6 µM | [7] > 100 µM | [8] > 100 µM | [9] 67.3 µM | [10] > 100 µM | [11] 70 µM | [12] > 100 µM | [13] > 100 µM | [14] 83.8 µM | [15] 13.7 µM

NC1=NN(c2ccccc2)C(=O)C1/C(=N\NC(=O)c1cc2ccccc2cc1O)C(=O)Nc1nc([N+](=O)[O-])cs1 (stereo not drawn)
inactive: [1] 17.3 µM | [2] 47.3 µM | [3] 40.2 µM | [4] 8.81 µM | [5] 54 µM | [6] 13.7 µM | [7] 18.4 µM | [8] 49.1 µM | [9] 19.1 µM | [10] 19.5 µM | [11] 2.73 µM | [12] 28.9 µM | [13] > 60.1 µM | [14] 38.5 µM | [15] 22.2 µM

CC(C)N(C(=O)C12C3C4C5C3C1(C(=O)N(C(C)C)C(C)C)C5C42)C(C)C (stereo not drawn)
inactive: [1] > 47.1 µM | [2] > 100 µM | [3] > 100 µM | [4] > 37.6 µM | [5] > 100 µM | [6] > 100 µM | [7] > 46.8 µM | [8] > 100 µM | [9] > 100 µM | [10] > 60.5 µM | [11] > 100 µM | [12] > 100 µM | [13] > 100 µM | [14] > 100 µM | [15] > 100 µM

CN(C)c1ccc(C=C2C(=O)N(c3ccccc3)N(c3ccccc3)C2=O)cc1
inactive: [2] > 100 µM | [5] > 100 µM | [6] 15.6 µM | [16] 60.8 µM | [7] 76.6 µM | [17] > 100 µM | [18] > 100 µM | [8] > 100 µM | [9] > 100 µM | [10] 56.5 µM | [12] 63.4 µM | [13] 74.3 µM | [14] > 100 µM

N#C/C(=C\c1cccc(Cl)c1Cl)c1ccccc1
inactive: [1] 39.3 µM | [2] > 69.5 µM | [3] > 79.3 µM | [4] > 100 µM | [5] 37 µM | [6] 44.5 µM | [7] > 75.9 µM | [8] 56.2 µM | [9] 52.8 µM | [10] 53.3 µM | [11] 31 µM | [12] 38.4 µM | [13] > 49.3 µM | [14] 57.3 µM | [15] > 100 µM

CC(=O)OC1CC2C(C)(C)C(=O)C=C[C@]2(C)C2CCC3(C)C(c4ccoc4)[C@@H](O)[C@H]4O[C@]43[C@]12C (stereo partly drawn)
inactive: [1] 21.6 µM | [2] 30.2 µM | [3] 16.1 µM | [4] 24.9 µM | [5] 22.7 µM | [6] 20.3 µM | [7] 16.9 µM | [8] 18.4 µM | [9] 14.6 µM | [10] 18.3 µM | [11] 19.1 µM | [12] 23.3 µM | [13] 24 µM | [14] 34.2 µM | [15] 21.4 µM

COc1cc2c(cc1OC)C1C=NC(C(=O)O)(C2)c2ccccc21 (stereo not drawn)
inactive: [1] 52.5 µM | [2] > 100 µM | [3] > 10 µM | [4] 26.4 µM | [5] > 100 µM | [6] > 100 µM | [7] > 100 µM | [8] > 100 µM | [9] > 100 µM | [10] > 100 µM | [11] > 100 µM | [12] > 100 µM | [13] > 100 µM | [14] > 100 µM | [15] > 100 µM

COC(=O)C(CCS(=O)(=O)CC(=O)C(=O)Nc1cccc(C(C)=O)c1)C(=O)OC
inactive: [1] > 43.1 µM | [2] > 100 µM | [3] > 100 µM | [4] > 100 µM | [5] > 100 µM | [6] > 100 µM | [7] > 61.9 µM | [8] > 100 µM | [9] > 92.3 µM | [10] > 100 µM | [11] > 100 µM | [12] > 100 µM | [13] > 100 µM | [14] > 100 µM | [15] > 100 µM

Source: ChEMBL document CHEMBL1201862, “PubChem BioAssay data set” (2004)
